Like-named read-outs stand apart in the source and are kept apart here.

The results in this text go back to patent publication US9290528B1, “Light-activated compounds” (University of Kentucky Research Foundation, priority 2013, dated 2016).

Data set [1] can be described thus: Photoejection half-life of 8 in solvents. It is filed as physicochemical. The settings on record: D2O vs H2O. An excerpt:
The photochemical behaviour of 8 paralleled the photophysical characteristics of unstrained Ru^II complexes containing the dppz ligand.

Another data set concerns calf thymus (CT) DNA. It is filed as physicochemical. The settings on record: bovine.
A further data set has as its system 15 mer oligonucleotide A. It is filed as physicochemical. The source says: (§1) The G-quadruplex sequence is [NT].
Data set [2] has as its system G-quadruplex [AGGG(TTAGGG)3]. The class given is physicochemical.
Description: as §1

In a further data set the target is CT DNA. The experiment in a line: DNA binding affinity (Kb) with CT DNA. The arrangement: species or system calf. The settings on record: racemic mixtures. The source says:
Intercalation of both complexes was consistent with the reduced mobility of supercoiled plasmid DNA in agarose gels, and the modulation of the absorption spectra in the presence of DNA, characterized by hypochromism of both the π-π* of the dppz ligand and the MLCT transitions, with maximal effect at a ratio of 2:1 DNA base pairs to metal center. Thus, the strained complex retained DNA-sensing capabilities of other Ru^II “light-switch” molecules and photochemical reactivity.

A short description of data set [3]: Light and dark cytotoxicity of exemplary compounds (Table 6). It is filed as cell-based. The settings on record: for IC50: cell line not stated. The source says:
This Example describes additional specific embodiments the presently-disclosed subject matter. […] The methods for making and characterizing the compounds are based on the methodologies described in the previous examples.

Regarding Ru(bpy)2dmdppz [Compound 8], the “isotope effect of ejection” value in data set [1] was more than 3.4. In addition, the “Half-life” value stood at 41 ± 2 min with calf thymus (CT) DNA, 31 ± 0.5 min in the data set with 15 mer oligonucleotide A and 13.5 min in data set [2]. In the data set with calf thymus (CT) DNA, this substance yielded a t1/2 values of 31 to 41 min. Also, the “increase of photoejection rate compared to CT DNA” value in data set [2] (bound to G-quadruplex) turned out to be 3 fold. Moreover, the Kb at CT DNA came out at 3e+07 M⁻¹. Also, the IC50 in data set [3] (read-out: Dark IC50) turned out to be 65 µM; in data set [3] (read-out: Light IC50) it was 14 µM. In data set [3] (dark IC50/light IC50), the “Phototoxicity Index” value was 4.6.

A word on the IC50: it is the concentration at which inhibition is half-maximal.
